Read-outs that look alike come from different tables or passages of the source.
What was measured:
Septoria tritici = conditions: SEPTTR, single active, 7 days after inoculation
Protocol: Activity Against Leaf Blotch on Wheat Caused by Septoria tritici (SEPTTR)
The stock solutions were mixed according to the ratio, pipetted onto a micro titer plate (MTP) and diluted with water to the stated concentrations. A spore suspension of Septoria tritici in an aqueous biomalt or yeast-bactopeptone-glycerine or DOB solution was then added. The plates were placed in a water vapor-saturated chamber at a temperature of 18° C. Using an absorption photometer, the MTPs were measured at 405 nm 7 days after the inoculation.
An efficacy of 0 means that the growth level of the pathogens corresponds to that of the untreated control; an efficacy of 100 means that the pathogens were not growing.

[1] = system: Qoi resistant isolate of Pyrenophora teres; test: Microtiter test: activity against net blotch Pyrenophora teres on barley (PYRNTE); assay type: cell-based; conditions: single active, 7 days after inoculation
Excerpt: 2. Activity Against Net Blotch Pyrenophora teres on Barley in the Microtiter Test (PYRNTE)
These percentages were converted into efficacies.

COC(=O)N(OC)c1ccccc1COc1ccn(-c2ccc(Cl)cc2)n1 [pyraclostrobin (A.1.14), pyraclostrobin]
Observed efficacy (Septoria tritici; 0.001 ppm): 9%

CC1CC(C)(C)c2cccc(NC(=O)c3cn(C)nc3C(F)F)c21 (stereo in doubt) [compound II, 3-(difluoromethyl)-N-[(3R)-2,3-dihydro-1,1,3-trimethyl-1H-inden-4-yl]-1-methyl-1H-pyrazole-4-carboxamide]
Observed efficacy ([1]; 0.004 ppm): 0%
Observed efficacy ([1]; 0.016 ppm): 10%
Observed efficacy ([1]; 0.063 ppm): 37%
Observed efficacy (Septoria tritici; 0.016 ppm): 0%
Observed efficacy (Septoria tritici; 0.063 ppm): 17%

CON(C(=O)c1cn(C)nc1C(F)F)C(C)Cc1c(Cl)cc(Cl)cc1Cl (stereo not drawn) [pydiflumetofen (A.3.17), pydiflumetofen]
Observed efficacy ([1]; 0.063 ppm): 10%

CC(C)c1ccc(Cl)cc1CN(C(=O)c1c(C(F)F)nn(C)c1F)C1CC1 [isoflucypram (A.3.26), isoflucypram]
Observed efficacy (Septoria tritici; 0.063 ppm): 37%

Cn1cc(C(=O)Nc2ccccc2-c2cc(F)c(F)c(F)c2)c(C(F)F)n1 [fluxapyroxad (A.3.9), fluxapyroxad]
Observed efficacy ([1]; 0.004 ppm): 0%

CO/C=C(/C(=O)OC)c1ccccc1Oc1cc(Oc2ccccc2C#N)ncn1 [azoxystrobin (A.1.1), azoxystrobin]
Observed efficacy (Septoria tritici; 0.004 ppm): 7%

CC(O)(Cn1cncn1)c1ccc(Oc2ccc(Cl)cc2)cc1C(F)(F)F (stereo not drawn) [compound I, 2-[4-(4-chlorophenoxy)-2-(trifluoromethyl)phenyl]-1-(1,2,4-triazol-1-yl) propan-2-ol]
Observed efficacy ([1]; 0.00025 ppm): 0%
Observed efficacy ([1]; 0.001 ppm): 0%
Observed efficacy ([1]; 0.004 ppm): 0%
Observed efficacy (Septoria tritici; 0.001 ppm): 7%
Observed efficacy (Septoria tritici; 0.004 ppm): 69%

From US20230397607A1, “COMPOSITIONS COMPRISING MEFENTRIFLUCONAZOLE” (BASF AGRO B.V., priority 2020, published 2023)
